Data from US8653088B2, “Compositions useful as inhibitors of protein kinases” (Vertex Pharmaceuticals Incorporated, priority 2003, dated 2014).
pKi: −log10 of the molar value.

Each compound was assayed against GSK-3β (AA 1-420) (Homo sapiens, UniProt P49841) (assay: Inhibition of GSK-3, standard coupled enzyme system). Settings: 20 μM ATP, 300 μM peptide, 20 nM GSK-3β, 30° C.
Assay type: biochemical
Method: Compounds were screened for their ability to inhibit GSK-3β (AA 1-420) activity using a standard coupled enzyme system (Fox et al. Protein Sci. 7, p. 2249 (1998)). Reactions were carried out in a solution containing 100 mM HEPES (pH 7.5), 10 mM MgCl2, 25 mM NaCl, 300 μM NADH, 1 mM DTT and 1.5% DMSO. Final substrate concentrations in the assay were 20 μM ATP (Sigma Chemicals, St Louis, Mo.) and 300 μM peptide (American Peptide, Sunnyvale, Calif.). Reactions were carried out at 30° C. and 20 nM GSK-3β. Final concentrations of the components of the coupled enzyme system were 2.5 mM phosphoenolpyruvate, 300 μM NADH, 30 μg/ml pyruvate kinase and 10 μg/ml lactate dehydrogenase.
An assay stock buffer solution was prepared containing all of the reagents listed above with the exception of ATP and the test compound of interest. The assay stock buffer solution (175 μl) was incubated in a 96 well plate with 5 μl of the test compound of interest at final concentrations spanning 0.002 μM to 30 μM at 30° C. for 10 min. Typically, a 12 point titration was conducted by preparing serial dilutions (from 10 mM compound stocks) with DMSO of the test compounds in daughter plates. The reaction was initiated by the addition of 20 μl of ATP (final concentration 20 μM). Rates of reaction were obtained using a Molecular Devices Spectramax plate reader (Sunnyvale, Calif.) over 10 min at 30° C. The Ki values were determined from the rate data as a function of inhibitor concentration.

GSK-3β (AA 1-420), sequence (P49841 whole entry, species assumed, the tested form may be a part): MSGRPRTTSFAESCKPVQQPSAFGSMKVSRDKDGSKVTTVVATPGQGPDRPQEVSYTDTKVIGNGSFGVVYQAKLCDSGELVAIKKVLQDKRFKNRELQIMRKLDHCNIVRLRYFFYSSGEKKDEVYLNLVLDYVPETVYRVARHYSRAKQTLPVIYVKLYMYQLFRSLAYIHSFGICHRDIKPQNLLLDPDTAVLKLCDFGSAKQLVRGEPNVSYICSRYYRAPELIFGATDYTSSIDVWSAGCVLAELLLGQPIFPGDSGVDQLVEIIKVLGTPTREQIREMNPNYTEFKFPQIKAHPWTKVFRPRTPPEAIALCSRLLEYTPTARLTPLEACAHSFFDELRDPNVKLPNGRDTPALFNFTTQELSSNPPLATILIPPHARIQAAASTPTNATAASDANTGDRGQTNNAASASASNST

Row | pKi | SMILES
1 | > 5.40 | Nc1n[nH]c2cc(=O)n(-c3cccc([N+](=O)[O-])c3)nc12 [Compound I-7]
2 | > 5.40 | Nc1n[nH]c2cc(=O)n(-c3cccc(S(N)(=O)=O)c3)nc12 [Compound I-9]
3 | > 5.40 | Nc1n[nH]c2cc(=O)n(-c3cccc(Cl)c3)nc12 [Compound I-8]
4 | > 5.40 | COc1cccc(-n2nc3c(N)n[nH]c3cc2=O)c1 [Compound I-1]
5 | > 5.40 | Cc1ccc(-n2nc3c(N)n[nH]c3cc2=O)cc1 [Compound I-5]
6 | > 5.40 | Nc1n[nH]c2cc(=O)n(-c3ccccc3)nc12 [Compound I-2]
7 | > 5.40 | Nc1n[nH]c2cc(=O)n(-c3ccc(Oc4ccccc4)cc3)nc12 [Compound I-4]
8 | > 5.40 | COc1cc2ncnc(Nc3n[nH]c4cc(=O)n(-c5cccc(C(F)(F)F)c5)nc34)c2cc1OC [Compound I-6]
